Values quoted from earlier work, collected in US20140100274A1, “METHODS OF ADMINISTERING COMPOSITIONS COMPRISING DOCOSAPENTAENOIC ACID” (Matinas BioPharma, Inc., priority 2012, published 2014).

Conditions: in vivo

CC[C@H](C)C(=O)O[C@H]1C[C@H](O)C=C2C=C[C@H](C)[C@H](CC[C@@H](O)C[C@@H](O)CC(=O)O)[C@H]21 [pravastatin]
First-pass metabolism: occurs in all statins except pravastatin
